{
  "source": "paper PMC8470881",
  "about": "“Membrane Interactions of Latarcins: Antimicrobial Peptides from Spider Venom” (International Journal of Molecular Sciences, 2021)",
  "key": {"[1]": {"assay": "Circular dichroism spectroscopy (secondary structure)", "assay_type": "physicochemical", "settings": "for % Helix (CD): CD in DMPC/DMPG (7/3) SUVs, P/L = 1:50, 10 mM phosphate buffer pH 7.0, 30 °C, peptide 29.3 μM, deconvolution with CDSSTR, CONTIN-LL, SELCON-3", "description": "Next, we compared the secondary structure of the full set of latarcins in the presence of lipid membranes, for which there are no complete data available yet.\nThe CD line shapes (Figure 2) were deconvoluted to estimate the secondary structure contributions (Supplementary Table S1) using the CDSSTR, CONTIN-LL, and SELCON-3 algorithms provided on the DICHROWEB online server as described previously. […] In peptides containing a high proportion of aromatic residues, such shifts of the long-wavelength band are well documented.\nSmall unilamellar vesicles (SUVs) for the CD measurements were prepared as follows. Weighed amounts of the lipid powders (DMPC, DMPG) were dissolved in chloroform/methanol 1/1 (v/v) to obtain 5 mg/mL stock solutions. For obtaining mixed DMPC/DMPG liposomes (7/3 molar ratio), the appropriate aliquots of these stock solutions were pipetted in a glass vial and thoroughly vortexed. The organic solvents were removed under a gentle stream of nitrogen gas, followed by 3 h of vacuum pumping in an exsiccator at a reduced pressure of 3-4 mbars to remove solvent residuals from the lipid film that had formed in the vial. The lipid film was dispersed by the addition of 10 mM phosphate buffer (PB) pH 7.0 and homogenized by vigorously vortexing for 10 × 1 min and 10 freeze–thaw cycles. SUVs were formed by sonication of the obtained multilamellar vesicles for 16 min in a strong ultrasonic bath (UTR 200, Hielscher, Germany). The temperature of the water in the ultrasonic bath was adjusted to 35 °C by circulating it through a thermostat to avoid overheating the samples. A weighed amount of the corresponding peptide was dissolved in water resulting in stock solutions with a peptide concentration of 0.5 mg/mL. For the final CD samples, each peptide stock solution was diluted to 29.3 μM and the corresponding lipid dispersion to 1.47 mM in 10 mM PB, resulting in a peptide-to-lipid (P/L) ratio of 1/50.\n[…] The samples were measured in a 1-millimeter path length quartz glass cell (Suprasil, Hellma Müllheim, Germany) between 260 and 185 nm at 0.5 nm intervals. Spectra of the liposome samples were recorded at 30 °C, i.e., well above the phase transition temperature of the lipids, using a water-thermostated rectangular cell holder. Three repeat scans at a scan rate of 10 nm min^−1, 8 s response time, and 1 nm bandwidth were averaged for each sample, and the baseline spectrum of the respective peptide-free sample was subtracted from the sample spectrum. CD spectra were smoothened by a Savitzky-Golay filter (convolution width of 15 data points), which is implemented in the Jasco Spectra Analysis software."}, "[2]": {"assay": "Oriented circular dichroism (helix alignment in membrane)", "assay_type": "physicochemical", "settings": "DMPC/DMPG (7/3), P/L = 1:100, oriented hydrated bilayers, 30 °C", "from_the_text": "This is the same lipid composition and peptide-to-lipid ratio as was used in conventional CD above (see Figure 2), but in contrast to the vesicular samples containing excess water, the oriented membranes for OCD are just about saturated with water.\nThe sign and intensity of the 208 nm band provide a characteristic signature of the helix tilt angle in the membrane [19]. For a helical peptide that lies flat on the bilayer surface, this band is the most intense.\nTo prepare oriented CD (OCD) samples, latarcins depending on their solubility were dissolved either in pure MeOH or CHCl3/MeOH 1/1 (v/v) and thoroughly mixed with appropriate aliquots of DMPC/DMPG solutions (7/3 molar ratio) in the same solvent. Each co-dissolved mixture with a peptide-to-lipid molar ratio of 1/100 was deposited on a quartz glass plate using a gas-tight syringe. To achieve a spot size of 12.5 mm on the 20 mm diameter plates (Suprasil QS, Hellma Optik GmbH, Jena, Germany), a volume of ~55–60 µL was used. The organic solvents were evaporated in a gentle stream of air until the sample appeared dry. The amounts of deposited lipid and peptide on the plate were always 0.29 μmole and 2.9 nmole, respectively. The peptide-lipid-film was further dried under reduced pressure for at least 3 h. Afterwards, each plate with the dried sample was fixed and sealed by a polymer O-ring in a cylindrical sample holder. The plate with the sample and a second window plate without the sample formed a compartment for controlled hydration. The holder was assembled in a custom-built hydration cell. In the inner compartment of the sample holder, the peptide-lipid film was hydrated for about 15 h at 30 °C and 97% relative humidity via the gas phase by a saturated K2SO4 solution contained in an adjacent cavity of the hydration cell. During hydration, the lipids spontaneously align as lipid bilayers that are macroscopically oriented perpendicular to the glass surface. For the measurement, the holder was transferred to an OCD sample cell that had been developed and built in-house [20]. It is computer-controlled and can be integrated into a Jasco spectropolarimeter as an accessory. The optical path runs along the cylindrical axis of the cell, i.e., normal to the quartz glass plate surface carrying the oriented lipid film. To reduce possible spectral artifacts caused by linear dichroism (LD) or linear birefringence (LB) due to imperfections in the sample, strain in the quartz glass or imperfect alignment of the windows, the OCD spectra were recorded in steps of 45° by rotation of the cell around the beam axis [19, 20]. At each angle, two scans were recorded from 260–185 nm as an average, using a scan rate of 20 nm min^−1, 4 s response time, and 1 nm bandwidth."}, "[3]": {"assay": "ANTS/DPX fluorescence vesicle leakage assay", "settings": "vesicle leakage of ANTS/DPX in POPC/POPG (1/1) LUVs, P/L = 1:50, 100 µM lipid, 10 min, 30 °C, pH 7.5", "protocol": "The ability of the peptides to induce leakage in large unilamellar vesicles (≈120 nm diameter) of POPC/POPG (1/1) was studied using a fluorescence assay using ANTS/DPX, as described previously.\nFor the leakage experiments, the buffer in which the vesicles were prepared contained the fluorophore ANTS (12.5 mM), the quencher DPX (45 mM), 50 mM NaCl, and 10 mM HEPES (pH 7.5). Liposomes were prepared by co-dissolving POPC/POPG 1/1 (mol/mol) lipids in CHCl3/MeOH (3/1 v/v), together with 10^−2 mol% Rhod-PE, by which the lipid loss during vesicle preparation (extrusion and gel filtration, see below) could be quantified. The peptide-to-lipid ratio (P/L) is given in mol/mol. The lipid mixture was dried under N2(g) and dried under vacuum for 2–4 h. The obtained thin film was then re-suspended in the buffer, which contained the fluorophore and the quencher, by vigorous vortexing, followed by 10 freeze–thaw cycles. Large unilamellar vesicles (LUV) were obtained by 41-fold extrusion (Avanti Mini Extruder; Avanti Polar Lipids, Alabaster, AL, USA) of the liposomes through a Nuclepore polycarbonate membrane (pore size 100 nm, Whatman-GE Healthcare Europe, Freiburg, Germany) at a temperature 20 °C above the lipid phase transition. […]\nThe leakage of entrapped ANTS was monitored by fluorescence dequenching of ANTS [18]. Fluorescence measurements were performed in a thermostated cuvette with constant stirring at 30 °C in the elution buffer used for gel filtration on a FluoroMax2 spectrofluorimeter (HORIBA Jobin Yvon, Unterhaching, Germany) by setting the ANTS excitation wavelength to 355 nm and its emission wavelength to 510 nm. Peptide stock solutions in water were prepared, and the peptide concentration was calculated from the weighed amount. […] The fluorescence signal was followed for 10 minutes, and after that time, Triton X-100 was added to completely disrupt the vesicles. The level of 0% leakage corresponded to the fluorescence of the vesicles immediately after their addition, while 100% leakage was the fluorescence value obtained after the addition of Triton X-100.\nThe synergy of the peptides towards vesicle leakage was investigated by pair-wise combinations of latarcins. The leakage was measured for each peptide alone at P/L = 1/100 and for peptide combinations at P/P/L = 1/1/100. The synergy factor, SF, is calculated according to:SF = L(P1 + P2)/[L(P1) + L(P2)].(1)\nHere, L(P1) is the leakage of peptide 1 alone, L(P2) is the leakage of peptide 2 alone, and L(P1 + P2) is the leakage for the mixture of the peptides. […] The SF was determined separately for each batch of samples, and then the individual SF values were averaged."}},
  "note": "Several values for one entry are separate records, joined by “and”; a condition that tells them apart may be missing. Equal entries are not always repeated.",
  "data": [
    {"substance": "G E TF D K L K E K L K TFYQ K LV E K A ED L K G D L K A K LS-acid [Ltc7]", "values": [
      {"measurement": "% Helix (CD)", "setting": "[1]", "value": 89, "unit": "%"},
      {"measurement": "OCD: orientational state of the helix", "setting": "[2]", "value": "Surface"},
      {"measurement": "% Leakage", "setting": "[3]", "value": "50% and 54%"}
    ]},
    {"substance": "H-GFFGKMKEYFKKFGASFKRRFANLKKRL-NH2 [Ltc5]", "values": [
      {"measurement": "% Helix (CD)", "setting": "[1]", "value": 85, "unit": "%"},
      {"measurement": "OCD: orientational state of the helix", "setting": "[2]", "value": "Surface"}
    ]},
    {"substance": "H-GLKDKFKSMGEKLKQYIQTWKAKF-NH2 [Ltc4a]", "values": [
      {"measurement": "% Helix (CD)", "setting": "[1]", "value": 94, "unit": "%"},
      {"measurement": "% Leakage", "setting": "[3]", "value": "20% and 22%"}
    ]},
    {"substance": "H-QAFQTFKPDWNKIRYDAMKMQTSLGQMKKRFNL-OH [Ltc6a]", "values": [
      {"measurement": "% Helix (CD)", "setting": "[1]", "value": 65, "unit": "%"},
      {"measurement": "OCD: orientational state of the helix", "setting": "[2]", "value": "Aggregated"},
      {"measurement": "% Leakage", "setting": "[3]", "value": "50% and 46%"}
    ]},
    {"substance": "H-SWKSMAKKLKEYMEKLKQRA-NH2 [Ltc3a]", "values": [
      {"measurement": "helical fold (CD) in buffer without lipids", "setting": "[1]; 10 mM phosphate buffer pH 7, no lipids, 30 °C", "value": "ca. 30%"},
      {"measurement": "% Helix (CD)", "setting": "[1]", "value": 87, "unit": "%"},
      {"measurement": "OCD: orientational state of the helix", "setting": "[2]", "value": "Slight tilt"},
      {"measurement": "% Leakage", "setting": "[3]", "value": 20, "unit": "%"}
    ]}
  ]
}
